Measured values reported in US20220257552A1, “METHODS OF PRESCREENING AND TREATING BREAST CANCERS WITH SELECTIVE ANDROGEN RECEPTOR MODULATORS” (priority 2021, published 2022).

Experiments:
Format in all cases: cell-based
HCI-13 tumor fragments = experiment: HCI-13 ex vivo sponge culture, real time PCR; conditions: for reversal of pS2 gene expression inhibited by Formula IX: 100 nM PMA or 100 ng/mL EGF before 1 μM Formula IX
Method: HCI-13 tumors grown in female mice were allowed to reach 500-1000 mm^3 before the animals were sacrificed and the tumors were excised to be used for sponge culture. Patient specimens frozen in liquid nitrogen in freezing medium were used for sponge culture. […] Tumors were sliced into small pieces (˜1 mm^3) and incubated on pre-soaked gelatin sponges (5 fragments/sponge) in 12 well plates containing 1.5 mL medium (MEM+10% FBS+2 mM L-glutamine+10 μg/mL insulin+10 μg/mL hydrocortisone+penicillin:streptomycin). The cultures were performed in triplicates for HCI-13 and singly for patient specimens. Pooled samples (n=5/sponge) from each sponge constituted one sample. Tissues were harvested after 3 days of treatment, RNA extracted, and expression of various genes measured. Although the same procedure was adopted for specimens obtained from breast cancer patients, the specimens were cultured singly (n=5/sponge=one sample) and not in triplicates as performed for HCI-13.

MR = target: T1, MR (Rattus norvegicus, UniProt P22199); experiment: MR transactivation in HEK-293 cells; conditions: 1 nM
T1 construct: expressed in transfected cells
T1 sequence (P22199 1-981): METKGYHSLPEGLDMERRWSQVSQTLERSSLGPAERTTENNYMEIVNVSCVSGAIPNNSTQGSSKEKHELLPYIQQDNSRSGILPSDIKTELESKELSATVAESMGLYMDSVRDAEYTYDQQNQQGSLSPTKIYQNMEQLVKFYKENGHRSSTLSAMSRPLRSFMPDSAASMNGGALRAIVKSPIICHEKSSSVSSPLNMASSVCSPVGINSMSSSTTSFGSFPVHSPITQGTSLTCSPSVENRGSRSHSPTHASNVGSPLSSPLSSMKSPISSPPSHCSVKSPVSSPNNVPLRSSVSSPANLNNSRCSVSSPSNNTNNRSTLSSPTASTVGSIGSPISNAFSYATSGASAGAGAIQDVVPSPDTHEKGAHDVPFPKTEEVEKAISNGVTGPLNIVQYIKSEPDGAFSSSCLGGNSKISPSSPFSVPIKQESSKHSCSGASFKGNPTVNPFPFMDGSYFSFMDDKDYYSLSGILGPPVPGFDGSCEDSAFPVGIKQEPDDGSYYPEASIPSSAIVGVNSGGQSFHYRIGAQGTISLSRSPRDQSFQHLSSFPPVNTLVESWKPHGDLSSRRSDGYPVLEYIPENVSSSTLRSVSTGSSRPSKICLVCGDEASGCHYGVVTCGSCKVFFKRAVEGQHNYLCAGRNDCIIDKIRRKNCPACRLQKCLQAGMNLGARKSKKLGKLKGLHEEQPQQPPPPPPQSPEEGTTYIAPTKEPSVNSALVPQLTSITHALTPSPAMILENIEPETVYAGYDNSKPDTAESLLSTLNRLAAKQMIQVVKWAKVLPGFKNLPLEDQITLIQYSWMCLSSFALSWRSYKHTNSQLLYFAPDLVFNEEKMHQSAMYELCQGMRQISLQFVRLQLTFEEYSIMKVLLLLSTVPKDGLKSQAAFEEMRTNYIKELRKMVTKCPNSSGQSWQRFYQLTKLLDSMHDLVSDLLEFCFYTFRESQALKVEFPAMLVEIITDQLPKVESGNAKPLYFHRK
Method: (§1) Rat GR, MR, PR, ER-α and ER-β were individually cloned into a pCR3.1 vector backbone. Sequencing was performed to verify the absence of any mutations. HEK-293 cells were plated at 90,000 cells per well of a 24 well plate in Dulbecco's Minimal Essential Media supplemented with 5% charcoal-stripped FBS. […] Luciferase assays were performed 48 h after transfection. Transcriptional activation values are represented as firefly luciferase normalized to renilla luciferase.

PR = target: T2, PR (Rattus norvegicus, UniProt Q63449); experiment: PR transactivation in HEK-293 cells
T2 construct: expressed in transfected cells
T2 sequence (Q63449 1-923): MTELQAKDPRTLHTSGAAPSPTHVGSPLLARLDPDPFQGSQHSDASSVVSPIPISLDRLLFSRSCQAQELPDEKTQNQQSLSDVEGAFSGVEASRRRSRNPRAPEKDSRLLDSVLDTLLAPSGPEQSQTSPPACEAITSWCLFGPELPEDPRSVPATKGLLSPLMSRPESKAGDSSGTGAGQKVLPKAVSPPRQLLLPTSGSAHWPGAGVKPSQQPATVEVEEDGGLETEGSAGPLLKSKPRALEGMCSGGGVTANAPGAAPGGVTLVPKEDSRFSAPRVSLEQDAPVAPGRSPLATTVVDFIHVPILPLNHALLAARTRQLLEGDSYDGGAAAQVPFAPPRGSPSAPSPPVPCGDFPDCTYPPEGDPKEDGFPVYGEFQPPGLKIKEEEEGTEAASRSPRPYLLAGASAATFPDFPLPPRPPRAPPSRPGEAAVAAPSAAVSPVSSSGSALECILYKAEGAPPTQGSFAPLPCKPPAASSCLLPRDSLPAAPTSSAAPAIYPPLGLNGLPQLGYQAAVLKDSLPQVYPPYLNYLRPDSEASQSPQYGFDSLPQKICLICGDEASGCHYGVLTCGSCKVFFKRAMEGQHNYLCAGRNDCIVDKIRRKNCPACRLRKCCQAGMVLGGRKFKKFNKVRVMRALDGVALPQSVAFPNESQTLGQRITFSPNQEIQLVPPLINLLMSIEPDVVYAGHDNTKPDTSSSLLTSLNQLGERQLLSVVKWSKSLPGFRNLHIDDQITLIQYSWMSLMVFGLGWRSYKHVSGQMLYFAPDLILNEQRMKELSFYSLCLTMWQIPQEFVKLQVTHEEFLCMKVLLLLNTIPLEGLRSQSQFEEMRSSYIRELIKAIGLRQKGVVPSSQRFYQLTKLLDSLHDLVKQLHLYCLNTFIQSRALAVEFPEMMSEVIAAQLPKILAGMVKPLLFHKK
Method: as §1

[1] = test system: MDA-MB-231 triple negative breast cancer cells; experiment: SRB cell viability, MDA-MB-231 cells infected with AR adenovirus
Method: (§2) The SRB assay was used to determine cell number during cytotoxocity experiments. The following protocol was used: • 1. Cells were detached with 0.25% trypsin. • 2. Experimental cultures were cultured in 96-well microtiter plates (200 μL growth medium per well; 1,000-200,000 cells per well). • 3. Cultures were fixed with 50 μL 50% TCA (4° C.). (see cell fixation protocol for details). • 4. Fixed cells were stained with 50 μL 0.4% (wt/vol) SRB in 1% acetic acid for 10 minutes. • 5. SRB was removed and the cultures were quickly* rinsed 5 times with 1% acetic acid to remove unbound dye.** • 6. Cultures were air-dried overnight until there was no visible moisture. • 7. The cellular protein-bound SRB was dissolved with 200 μL unbuffered Tris base (10 mM, pH 10.5) for 30 minutes on a rocking platform shaker. • 8. Absorbance was read at 540 nm. * quickly performing rinsing process was to prevent desorption of protein-bound SRB ** completely removed residual wash solution by sharply flicking plates over sink.
(§3) The following protocol was used for fixing cells: • a. 50 μL of 50% TCA (4° C.) was gently layered on the top of growth medium in each well to make a final TCA concentration of 10%. • b. Cultures were incubated at 4° C. for 1 hour. • c. Cultures were washed 5 times with tap water to remove TCA, growth medium, low-molecular-weight metabolites, and serum protein. • d. Plates were air-dried until there was no visible moisture.
Cells were treated in charcoal stripped FBS (FIGS. 4A, 4C, 4E, 4G, 4I, 4K, 4M and 4O) or full serum (FIGS. 4B, 4D, 4F, 4H, 4J, 4L, 4N and 4P) for 3 days, fixed and stained with […] (SRB) to measure cell viability. Anti-proliferative IC50 values were calculated in breast cancer cells and compared to transactivation values, i.e., EC50 (agonists) and IC50 (antagonists) values, generated in HEK-293 cells.

[2] = test system: HCC-38 triple negative breast cancer cells; experiment: SRB cell viability, HCC-38 cells infected with AR adenovirus; conditions: 3 days
Method: as §2
as §3, with “Plates were air-dried until there was no visible moisture.” left out

MDA-MB-231-AR cells = experiment: Morphology of MDA-MB-231-AR cells; conditions: 3 days
Method: MDA-MB-231 cells were stably transfected with AR using lentivirus. […] Live cells were visualized using a light-microscope and photographed. The cells were imaged at the same magnification and under the same microscopic conditions.
MDA-MB-231 cells were stably transfected with AR using lentivirus and were treated with vehicle or AR agonists at the indicated concentrations. At the end of 3 days of incubation, the cells were imaged under a microscope (40×).

Q: For `CCCCCCCCCCCCCC(=O)O[C@@H]1[C@@H](C)[C@@]2(O)[C@@H](C=C(CO)C[C@]3(O)C(=O)C(C)=C[C@@H]23)[C@@H]2C(C)(C)[C@]12OC(C)=O` [PMA, phorbol 12-myristate 13-acetate], which “reversal of pS2 gene expression inhibited by Formula IX” value (HCI-13 tumor fragments) is on record?
A: completely reversed

Q: Which “MR activity, induction” value (MR) does the source give for `C[C@]12CCC(=O)C=C1CC[C@@H]1[C@@H]2[C@@H](O)C[C@]2(C=O)[C@@H](C(=O)CO)CC[C@@H]12` [aldosterone, reference compound] here?
A: 60 fold

Q: Which IC50 (PR) does the source give for `CC#C[C@]1(O)CC[C@H]2[C@@H]3CCC4=CC(=O)CCC4=C3[C@@H](c3ccc(N(C)C)cc3)C[C@@]21C` [RU486, reference compound] here?
A: 0.048 nM

Q: For `CC(=O)[C@H]1CC[C@H]2[C@@H]3CCC4=CC(=O)CC[C@]4(C)[C@H]3CC[C@]12C` [Progesterone, progesterone, reference compound], which PR activation (PR; 1 nM) is on record?
A: 23 folds

Q: Which results are given for `C[C@]12CCC(=O)C[C@@H]1CC[C@@H]1[C@@H]2CC[C@]2(C)[C@@H](O)CC[C@@H]12` [DHT, 5α-dihydrotestosterone, reference compound]?
A: growth inhibitory effects in the presence of bicalutamide ([1]; AR-positive cells, 10 μM bicalutamide): weakened growth inhibitory effects; cell growth ([1]; cells with AR, 3 days, SRB): inhibited; cell growth [2]: inhibited; inhibition of ER-induced pS2 and PR gene expression (HCI-13 tumor fragments; 10 nM DHT, 1 μM Formula IX, 100 nM fulvestrant, 3 days): effective; AR-target gene FKBP5 expression (HCI-13 tumor fragments; 3 days): induced; MKI67 expression (HCI-13 tumor fragments; 3 days): inhibited; cell morphology (MDA-MB-231-AR cells): altered the morphology into a more anchored phenotype

Q: How did the “reversal of pS2 gene expression inhibited by Formula IX” value (HCI-13 tumor fragments) turn out when EGF: epidermal growth factor was run?
A: only marginally reversed

Q: Which IC50 (PR) does the source give for `C[C@@](O)(COc1ccc(C#N)cc1)C(=O)Nc1ccc(C#N)c(C(F)(F)F)c1` [R-enantiomer of Formula IX, (R)—N-(4-cyano-3-(trifluoromethyl)phenyl)-3-(4-cyanophenoxy)-2-hydroxy-2-methylpropanamide] here?
A: 1690 nM
